Laboratory results reported in patent publication US8975265B2, “Substituted imidazo[1,2-a]pyrimidines and —pyridines” (Bayer Intellectual Property GmbH, priority 2010, dated 2015).

Experiments:
[1] = test system: KPL-4 breast cancer cell line; test: Tumor cell proliferation assay (CellTiter-Glo, 72 h), KPL-4; format: cell-based; details: KPL4, 72h drug exposure
Procedure: Biological Assay 4.0: Tumor Cell Proliferation Assays
Compounds were tested in a cell-based assay that measures the capacity of the compounds to inhibit tumour cell proliferation following a 72h drug exposure. Cell viability is determined using CellTiter-Glow® (CTG, Promega, cat# G7571/2/3). The CellTiter-Glo® Luminescent Cell Viability Assay is a homogeneous method to determine the number of viable cells in culture. Detection is based on using the luciferase reaction to measure the amount of ATP from viable cells. The amount of ATP in cells correlates with cell viability. Within minutes after a loss of membrane integrity, cells lose the ability to synthesize ATP, and endogenous ATPases destroy any remaining ATP; thus the levels of ATP fall precipitously.
For each cell line assayed, cells were plated onto a separate plate for determination of […] at t=0 hour and t=72 hour time points. Following overnight incubation at 37° C., chemiluminescence values for the t=0 samples were determined after adding 10 μl medium and 100 μl CTG solution according to manufacture protocol. Plates for the t=72 hour time points were treated with compounds diluted into growth medium at ten times final concentration added in 10 μL to the cell culture plate. Cells were then incubated for 72 hours at 37° C. Chemiluminescence values for the t=72 hour samples were determined. […] Experiments were controlled using a reference compound as standard.

[2] = target: His-tagged human recombinant kinase full-length Akt1 (Homo sapiens (Human), UniProt P31749); test: Akt1 kinase assay (TR-FRET); format: biochemical; details: 10 μM ATP; read-out: Akt1, median IC50
Procedure: Biological Assay 1.0: Akt1 Kinase Assay
Akt1 inhibitory activity of compounds of the present invention was quantified employing the Akt1 TR-FRET assay as described in the following paragraphs.
As substrate for the kinase reaction the biotinylated peptide biotin-Ahx-[…] (C-terminus in amide form) was used which can be purchased e.g. from the company Biosynthan GmbH (Berlin-Buch, Germany).
For the assay 50 nl of a 100 fold concentrated solution of the test compound in DMSO was pipetted into a black low volume 384 well microtiter plate (Greiner Bio-One, Frickenhausen, Germany), 2 μl of a solution of Akt1 in assay buffer [50 mM TRIS/HCl pH 7.5, 5 mM MgCl2, 1 mM dithiothreitol, 0.02% (v/v) Triton X-100 (Sigma)] were added and the mixture was incubated for 15 min at 22° C. to allow prebinding of the test compounds to the enzyme before the start of the kinase reaction. […] The concentration of Akt1 in the assay was adjusted depending of the activity of the enzyme lot and was chosen appropriate to have the assay in the linear range, typical enzyme concentrations were in the range of about 0.05 ng/μl (final conc. in the 5 μl assay volume).
The resulting mixture was incubated 1 h at 22° C. to allow the binding of the biotinylated phosphorylated peptide to the streptavidine-XL665 and the antibodies. Subsequently the amount of phosphorylated substrate was evaluated by measurement of the resonance energy transfer from the anti-mouse-IgG-Eu-Chelate to the streptavidine-XL665.

[3] = test system: p-AKT1/2/3-S473 in KPL4 breast tumour cell line; test: Cellular p-AKT1/2/3-S473 assay; format: cell-based; details: KPL4 breast tumour cell line, 2 hours treatment; read-out: pAKT-S743 median IC50
Procedure: The molecular mechanism of action was investigated in a set of experiments to assess the inhibition of the PI3K-AKT-mTOR pathway in responsive cell lines such as KPL4 breast tumour cell line (PIK3CAH1047R, HER20/E and hormone independent). The phospho-substrates of PI3K-AKT-mTOR axis were used as the read-outs to reflect pathway inhibition. Cells were seeded at 60-80% confluency per well in 96-well cell culture plates. After overnight incubation at 37° C. 5% CO2, cells were treated with compounds and vehicle at 37° C. for 2 hours. […] All measurements where at least done in duplicates and confirmed by independent repetition.
Alternatively pAKT-S473 was measured using the “Akt Duplex” of the MULTI-SPOT® Assay System (Fa. Meso Scale Discovery, Cat# N41100B-1) following manufacturers instructions. Each assay used 20 μg of protein extract and measured total AKT and p-AKT content simultaneously in one well. All measurements where at least done in duplicates and confirmed by independent repetition. Values for P-AKT are expressed as percentage of P-AKT level compared to total-AKT content of the extracts.

Chain of His-tagged human recombinant kinase full-length Akt1 (P31749 whole entry): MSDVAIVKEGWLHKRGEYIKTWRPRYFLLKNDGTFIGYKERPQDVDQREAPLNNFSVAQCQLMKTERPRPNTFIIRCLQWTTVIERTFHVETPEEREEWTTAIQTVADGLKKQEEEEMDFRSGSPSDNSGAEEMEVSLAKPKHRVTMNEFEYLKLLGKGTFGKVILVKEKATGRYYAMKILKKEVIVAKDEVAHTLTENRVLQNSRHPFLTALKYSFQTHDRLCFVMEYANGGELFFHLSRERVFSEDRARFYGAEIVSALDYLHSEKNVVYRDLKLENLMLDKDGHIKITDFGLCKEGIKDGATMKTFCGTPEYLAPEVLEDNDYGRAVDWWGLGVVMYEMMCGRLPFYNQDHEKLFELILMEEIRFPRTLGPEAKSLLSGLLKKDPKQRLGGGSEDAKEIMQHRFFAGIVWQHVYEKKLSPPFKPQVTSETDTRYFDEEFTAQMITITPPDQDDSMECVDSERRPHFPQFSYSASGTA

| IC50 [1] | IC50 [2] | IC50 [3] | Compound |
| --- | --- | --- | --- |
| 7900 nM | 1270 nM | 308 nM | NC1(c2ccc(-c3nc4cc(O)ccn4c3-c3ccccc3)cc2)CCC1 [Example 10-0, 2-[4-(1-amino-cyclobutyl)-phenyl]-3-phenyl-imidazo[1,2-a]pyridin-7-ol] |
| 1800 nM | 113 nM | 134 nM | NC1(c2ccc(-c3nc4cc(Cl)ccn4c3-c3ccccc3)cc2)CCC1 [Example 2-66] |
| 2300 nM | 504 nM | 213 nM | NC1(c2ccc(-c3nc4ccc(CO)cn4c3-c3ccccc3)cc2)CCC1 [Example 2-25] |
| 1300 nM | 423 nM | 83 nM | NC1(c2ccc(-c3nc4ccc(C(=O)NCCF)cn4c3-c3ccccc3)cc2)CCC1 [Example 2-54] |
| 1900 nM | 99 nM | 297 nM | NC1(c2ccc(-c3nc4c(-c5cn[nH]c5)cccn4c3-c3ccccc3)cc2)CCC1 [Example 2-50] |
| 2400 nM | 530 nM | 541 nM | NC1(c2ccc(-c3nc4ccc(-c5ccccn5)cn4c3-c3ccccc3)cc2)CCC1 [Example 2-138] |
| 3200 nM | 303 nM | 103 nM | NC1(c2ccc(-c3nc4ccc(O)cn4c3-c3ccccc3)cc2)CCC1 [Example 5-0, 2-[4-(1-amino-cyclobutyl)-phenyl]-3-phenyl-imidazo[1,2-a]pyridin-6-ol] |
| 2200 nM | 96 nM | 51 nM | N#CCOc1ccc2nc(-c3ccc(C4(N)CCC4)cc3)c(-c3ccccc3)n2c1 [Example 9-5] |
| 9200 nM | 19400 nM | 1240 nM | NC1(c2ccc(-c3nc4cc(C(=O)N5CCCC5)ccn4c3-c3ccccc3)cc2)CCC1 [Example 2-42] |
| 2400 nM | 1660 nM | 1770 nM | C#Cc1ccn2c(-c3ccccc3)c(-c3ccc(C4(N)CCC4)cc3)nc2c1 [Example 7-0, 1-[4-(7-ethynyl-3-phenyl-imidazo[1,2-a]pyridin-2-yl)-phenyl]-cyclobutylamine] |
| 1900 nM | 260 nM | 467 nM | CCc1ccc2nc(-c3ccc(C4(N)CCC4)cc3)c(-c3ccccc3)n2c1 [Example 2-38] |
| 2000 nM | 140 nM | 339 nM | NC1(c2ccc(-c3nc4c(C5CC5)cccn4c3-c3ccccc3)cc2)CCC1 [Example 2-47] |
| 10000 nM | 550 nM | 8120 nM | NC1(c2ccc(-c3nc4cc(C(=O)O)ccn4c3-c3ccccc3)cc2)CCC1 [Example 2-120] |
| 2000 nM | 1710 nM | 276 nM | CC(C)NC(=O)c1ccc2nc(-c3ccc(C4(N)CCC4)cc3)c(-c3ccccc3)n2c1 [Example 2-53] |
| 9800 nM | 588 nM | 1170 nM | CNC(=O)Nc1ccn2c(-c3ccccc3)c(-c3ccc(C4(N)CCC4)cc3)nc2c1 [Example 1-14] |
| 1600 nM | 236 nM | 63 nM | Cn1cncc1-c1ccn2c(-c3ccccc3)c(-c3ccc(C4(N)CCC4)cc3)nc2c1 [Example 2-116] |

More lines, now with the values behind:

| Compound | IC50 [1] | IC50 [2] | IC50 [3] |
| --- | --- | --- | --- |
| NC1(c2ccc(-c3nc4ccc(-c5cccnc5)cn4c3-c3ccccc3)cc2)CCC1 [Example 2-137] | 1700 nM | 541 nM | 149 nM |
| CCc1cnc2nc(-c3ccc(C4(N)CCC4)cc3)c(-c3ccccc3)n2c1 [Example 2-33] | 1000 nM | 379 nM | 187 nM |
| NC1(c2ccc(-c3nc4cc(-c5cn[nH]c5)ccn4c3-c3ccccc3)cc2)CCC1 [Example 2-22] | 1500 nM | 188 nM | 142 nM |
| NC1(c2ccc(-c3nc4ccc(-c5nn[nH]n5)cn4c3-c3ccccc3)cc2)CCC1 [Example 2-135] | 10000 nM | 74 nM | 9810 nM |
| Cc1cccn2c(-c3ccccc3)c(-c3ccc(C4(N)CCC4)cc3)nc12 [Example 2-5] | 4300 nM | 100 nM | 209 nM |
| CCOC(=O)c1cccn2c(-c3ccccc3)c(-c3ccc(C4(N)CCC4)cc3)nc12 [Example 2-43] | 9200 nM | 62 nM | 1340 nM |
| NC1(c2ccc(-c3nc4cc(C5CC5)ccn4c3-c3ccccc3)cc2)CCC1 [Example 2-37] | 1900 nM | 1640 nM | 441 nM |
| NCCOc1ccn2c(-c3ccccc3)c(-c3ccc(C4(N)CCC4)cc3)nc2n1 [Example 4-0, 1-{4-[7-(2-amino-ethoxy)-3-phenyl-imidazo[1,2-a]pyrimidin-2-yl]-phenyl}-cyclobutylamine] | 4600 nM | 548 nM | 1460 nM |
| COc1ccc2nc(-c3ccc(C4(N)CCC4)cc3)c(-c3ccccc3)n2c1 [Example 2-17] | 1500 nM | 36 nM | 35 nM |
| NC1(c2ccc(-c3nc4c(O)cccn4c3-c3ccccc3)cc2)CCC1 [Example 5-1, 2-[4-(1-amino-cyclobutyl)-phenyl]-3-phenyl-imidazo[1,2-a]pyridin-8-ol] | 10000 nM | 590 nM | 3480 nM |
| Cc1ccn2c(-c3ccccc3)c(-c3ccc(C4(N)CCC4)cc3)nc2c1 [Example 2-4] | 2000 nM | 829 nM | 292 nM |
| NC1(c2ccc(-c3nc4ccc(C(=O)NC5CC5)cn4c3-c3ccccc3)cc2)CCC1 [Example 2-57] | 3100 nM | 493 nM | 147 nM |
| NC1(c2ccc(-c3nc4ccc(C(=O)NO)cn4c3-c3ccccc3)cc2)CCC1 [Example 2-59] | 3800 nM | 257 nM | 236 nM |
| NC1(c2ccc(-c3nc4ccccn4c3-c3ccccc3)cc2)CCC1 [Example 2-106, 1-[4-(3-phenyl-imidazo[1,2-a]pyridin-2-yl)-phenyl]-cyclobutylamine] | 2100 nM | 151 nM | 202 nM |
| C=Cc1ccc2nc(-c3ccc(C4(N)CCC4)cc3)c(-c3ccccc3)n2c1 [Example 2-48] | 2500 nM | 300 nM | 1030 nM |
| Cn1cc(-c2ccn3c(-c4ccccc4)c(-c4ccc(C5(N)CCC5)cc4)nc3c2)cn1 [Example 2-150] | 1700 nM | 558 nM | 66 nM |
| COc1ccc(COc2ccn3c(-c4ccccc4)c(-c4ccc(C5(N)CCC5)cc4)nc3n2)cn1 [Example 2-26] | 1900 nM | 221 nM | 90 nM |
| NC1(c2ccc(-c3nc4cc(-c5nn[nH]n5)ccn4c3-c3ccccc3)cc2)CCC1 [Example 2-117] | 10000 nM | 26 nM | 10000 nM |
| COC(=O)c1ccn2c(-c3ccccc3)c(-c3ccc(C4(N)CCC4)cc3)nc2c1 [Example 2-35] | 5000 nM | 226 nM | 975 nM |
| CNC(=O)c1ccn2c(-c3ccccc3)c(-c3ccc(C4(N)CCC4)cc3)nc2c1 [Example 2-122] | 1200 nM | 409 nM | 46 nM |
| CCOC(=O)c1ccn2c(-c3ccccc3)c(-c3ccc(C4(N)CCC4)cc3)nc2c1 [Example 2-119] | 4200 nM | 86 nM | 725 nM |
| COCCNC(=O)c1ccc2nc(-c3ccc(C4(N)CCC4)cc3)c(-c3ccccc3)n2c1 [Example 2-56] | 3400 nM | 452 nM | 200 nM |
